Data taken from article PMC11879040, “Advancing systemic toxicity risk assessment: Evaluation of a NAM-based toolbox approach” (Toxicological Sciences, 2024).
Converted amounts (≈) assume the structure as drawn. Read-outs that look alike come from different tables or passages of the source.

Columns and labels:
[1] = molecular target: Voltage-dependent L-type Ca2+ channel (dihydropyridine site), CACNA1C (r) (Rattus norvegicus, UniProt P22002); assay type: binding
[2] = tested on: Potassium Voltage-Gated Channel Kv non-selective, KCNQ1 (r); assay: IPP KCNQ1 binding (antagonist radioligand); set-up: species or system rat; settings: IPP screening at 10 uM; control α-dendrotoxin
[3] = tested on: Gamma-aminobutyric acid receptor subunit alpha-1 BZD site, GABRA1A (r); assay type: binding, rat
[4] = tested on: Sodium channel protein type 5 subunit alpha (site 2), SCN5A (r); assay type: binding, rat
[5] = molecular target: T1, Adenosine receptor A2a, ADORA2A (h) (Homo sapiens, UniProt P29274); assay: IPP ADORA2A binding (agonist radioligand); settings: IPP screening at 10 uM; control NECA
T1 construct: purchased Eurofins Cerep (SafetyScreen44-based IPP panel)
T1 sequence (P29274 whole entry): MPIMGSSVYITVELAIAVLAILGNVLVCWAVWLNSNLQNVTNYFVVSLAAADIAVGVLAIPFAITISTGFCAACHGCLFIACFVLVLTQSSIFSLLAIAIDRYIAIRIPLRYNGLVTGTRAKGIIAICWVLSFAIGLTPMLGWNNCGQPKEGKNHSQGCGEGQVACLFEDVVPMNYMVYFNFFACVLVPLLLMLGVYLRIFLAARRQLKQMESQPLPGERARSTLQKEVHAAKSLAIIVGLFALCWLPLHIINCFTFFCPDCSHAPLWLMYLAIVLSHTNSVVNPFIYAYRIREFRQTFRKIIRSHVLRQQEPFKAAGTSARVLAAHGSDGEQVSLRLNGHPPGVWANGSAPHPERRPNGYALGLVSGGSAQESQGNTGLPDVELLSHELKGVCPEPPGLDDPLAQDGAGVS

[6] = tested on: Thyroid hormone receptor alpha, THRA (h); assay: IPP THRA coactivator recruitment (agonist); assay type: biochemical, human; settings: 10 uM; agonist; T3
Tubulin (r) = assay: IPP Tubulin binding; set-up: species or system rat; settings: 10 uM; ligand/control Colchicine
HepG2 cells [7] = assay: Cell stress panel (CSP), 24 h, 8 concentrations, BIFROST global PoD; assay type: cell-based; settings: for pod_cell_stress PoD: HepG2, cell stress panel PoD
Description: Compounds were tested using the previously developed cell stress panel ([Hatherell et al. 2020]) and the expanded biomarker panel outlined in Middleton et al. HepG2 cells were treated with all compounds for 24 h across 8 concentrations prior to biomarker analysis. The same plate layout and number of replicates (3 biological and 2 technical) were used as previously for each assay within the panel.

HepG2 cells [8] = assay: High-throughput transcriptomics (HTTr, TempO-Seq), HepG2, 24 h; assay type: cell-based, human; settings: HepG2; for pod_httr_bifrost PoD: HTTr BIFROST PoD; for podl_path_minbmd PoD: HTTr minimum pathway BMD(L)
Description: (§1) HepG2, HepaRG, and MCF7 cells were treated with each compound for 24 h across a dose range of 7 concentrations and lysed using TempO-Seq lysis buffer (BioSpyder Technologies, proprietary kit, see [Middleton et al. 2022] for method details). Sequencing was performed using TempO-Seq (BioClavis) version 2 of the human whole transcriptome panel and analyzed as described previously in Middleton et al.

HepaRG cells = assay: High-throughput transcriptomics (HTTr, TempO-Seq), HepaRG, 24 h; assay type: cell-based, human; settings: HepaRG; for pod_httr_bifrost PoD: HTTr BIFROST PoD; for podl_path_minbmd PoD: HTTr minimum pathway BMD(L)
Description: as §1

MCF7 cells = assay: High-throughput transcriptomics (HTTr, TempO-Seq), MCF7, 24 h; assay type: cell-based, human; settings: MCF-7; for pod_httr_bifrost PoD: HTTr BIFROST PoD; for podl_path_minbmd PoD: HTTr minimum pathway BMD(L)
Description: as §1

[9] = tested on: Glutamate receptor ionotropic NMDA 1 non-selective, GRIN1 (r)
[10] = human
[11] = human; remark: listed apart in the source
physchem = settings: pH 5.22, water
rat = settings: cited from earlier work
[12] = cited from earlier work
[13] = molecular target: T2, Estrogen receptor, ER1 (h) (Homo sapiens, UniProt P03372); assay: IPP ER1 coactivator recruitment (agonist); assay type: biochemical; settings: 10 uM, estriol
T2 construct: purchased Eurofins Cerep (SafetyScreen44-based IPP panel)
T2 sequence (P03372 1-595): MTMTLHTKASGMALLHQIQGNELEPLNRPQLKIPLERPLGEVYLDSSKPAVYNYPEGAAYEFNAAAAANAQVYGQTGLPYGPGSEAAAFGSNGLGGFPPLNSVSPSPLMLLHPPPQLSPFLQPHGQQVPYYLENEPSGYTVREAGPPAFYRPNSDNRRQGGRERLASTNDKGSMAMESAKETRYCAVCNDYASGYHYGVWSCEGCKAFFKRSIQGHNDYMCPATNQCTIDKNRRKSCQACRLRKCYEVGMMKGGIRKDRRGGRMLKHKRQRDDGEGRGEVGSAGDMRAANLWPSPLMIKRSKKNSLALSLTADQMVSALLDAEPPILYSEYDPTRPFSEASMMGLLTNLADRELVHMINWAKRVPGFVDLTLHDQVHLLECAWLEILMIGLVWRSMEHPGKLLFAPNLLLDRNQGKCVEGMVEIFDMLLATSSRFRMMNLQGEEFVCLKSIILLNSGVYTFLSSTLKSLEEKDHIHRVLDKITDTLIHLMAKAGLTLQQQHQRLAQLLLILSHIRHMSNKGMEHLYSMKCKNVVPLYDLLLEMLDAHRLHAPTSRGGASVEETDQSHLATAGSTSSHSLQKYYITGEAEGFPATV

[14] = molecular target: T2, Estrogen receptor, ER1 (h); assay: IPP ER1 coactivator recruitment (antagonist); assay type: biochemical; settings: 10 uM, estriol
[15] = tested on: 63 targets with known safety liabilities; assay: In vitro pharmacological profiling (IPP) panel, screening at 10 or 100 µM and dose response, minimum IC50/AC50; assay type: biochemical; settings: lowest AC50 across IPP panel (systemic targets); cell_type -; read-out: ipp_lowest_ac50_systemic PoD
[16] = molecular target: Potassium voltage-gated channel subfamily H member 2 hERG, KCNH2 (h) (Homo sapiens, UniProt Q12809); settings: 10 uM; [3H] Dofetilide; control Terfenadine
Potassium voltage-gated channel subfamily H member 2 hERG, KCNH2 (h), sequence (Q12809 whole entry): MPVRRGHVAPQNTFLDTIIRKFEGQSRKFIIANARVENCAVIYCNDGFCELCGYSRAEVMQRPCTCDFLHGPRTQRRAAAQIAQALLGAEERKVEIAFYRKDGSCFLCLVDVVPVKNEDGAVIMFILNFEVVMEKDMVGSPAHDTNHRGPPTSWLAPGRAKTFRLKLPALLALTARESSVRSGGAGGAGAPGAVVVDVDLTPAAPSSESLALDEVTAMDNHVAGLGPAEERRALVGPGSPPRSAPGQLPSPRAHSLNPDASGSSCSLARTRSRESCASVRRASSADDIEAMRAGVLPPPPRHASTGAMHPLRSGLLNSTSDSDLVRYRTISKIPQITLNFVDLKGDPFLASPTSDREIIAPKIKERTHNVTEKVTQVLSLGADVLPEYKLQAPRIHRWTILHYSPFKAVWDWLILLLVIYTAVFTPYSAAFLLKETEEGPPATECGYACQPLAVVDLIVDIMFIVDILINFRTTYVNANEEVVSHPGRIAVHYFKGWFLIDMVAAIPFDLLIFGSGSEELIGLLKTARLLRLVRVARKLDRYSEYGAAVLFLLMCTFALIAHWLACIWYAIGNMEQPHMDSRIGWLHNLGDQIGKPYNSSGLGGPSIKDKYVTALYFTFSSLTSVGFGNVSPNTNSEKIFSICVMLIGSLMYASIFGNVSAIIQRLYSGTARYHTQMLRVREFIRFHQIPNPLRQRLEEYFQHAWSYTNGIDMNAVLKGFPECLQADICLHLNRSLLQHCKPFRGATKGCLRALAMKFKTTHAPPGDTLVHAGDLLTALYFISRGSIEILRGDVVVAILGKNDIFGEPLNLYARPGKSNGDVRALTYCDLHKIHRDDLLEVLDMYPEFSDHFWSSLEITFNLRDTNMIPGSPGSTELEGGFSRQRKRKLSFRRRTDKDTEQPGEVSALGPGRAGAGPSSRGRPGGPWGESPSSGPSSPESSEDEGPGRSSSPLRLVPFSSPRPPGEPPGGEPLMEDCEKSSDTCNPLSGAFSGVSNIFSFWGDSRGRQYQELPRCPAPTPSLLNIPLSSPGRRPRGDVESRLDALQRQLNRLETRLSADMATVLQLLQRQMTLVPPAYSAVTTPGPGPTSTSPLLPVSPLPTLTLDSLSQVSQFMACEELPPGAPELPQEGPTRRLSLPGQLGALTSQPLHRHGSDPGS

dog = settings: 52 weeks, ref ToxRefDB/Paul-Friedman et al. (2020)/regulatory opinions; cited from earlier work
[17] = molecular target: 5-hydroxytryptamine receptor 2B, HTR2B (h) (Homo sapiens, UniProt P41595); assay: biochemical
5-hydroxytryptamine receptor 2B, HTR2B (h), sequence (P41595 whole entry): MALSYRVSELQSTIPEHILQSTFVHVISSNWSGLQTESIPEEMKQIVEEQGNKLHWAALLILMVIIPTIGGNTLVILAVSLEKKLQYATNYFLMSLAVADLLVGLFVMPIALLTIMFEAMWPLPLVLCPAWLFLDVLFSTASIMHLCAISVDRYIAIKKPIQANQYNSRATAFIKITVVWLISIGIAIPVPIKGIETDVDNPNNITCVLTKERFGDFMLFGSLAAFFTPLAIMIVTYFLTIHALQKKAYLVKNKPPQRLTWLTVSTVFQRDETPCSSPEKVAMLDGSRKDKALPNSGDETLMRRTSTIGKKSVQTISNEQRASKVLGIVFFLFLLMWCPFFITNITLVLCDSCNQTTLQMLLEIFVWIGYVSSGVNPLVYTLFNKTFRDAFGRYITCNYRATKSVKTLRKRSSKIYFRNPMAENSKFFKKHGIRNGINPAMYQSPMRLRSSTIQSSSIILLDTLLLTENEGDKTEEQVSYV

[18] = IV bolus 100 mg solution, 20 renal transplant patients, validation, ref Lin et al. 1980
[19] = IV bolus 100 mg solution, uremic patients, validation, ref Odlind et al. 1986
[20] = Oral tablet 100 mg, fasted, uremic patients, calibration, ref Odlind et al. 1986

Voltage-dependent L-type Ca2+ channel (dihydropyridine site), CACNA1C (r), sequence (P22002 whole entry): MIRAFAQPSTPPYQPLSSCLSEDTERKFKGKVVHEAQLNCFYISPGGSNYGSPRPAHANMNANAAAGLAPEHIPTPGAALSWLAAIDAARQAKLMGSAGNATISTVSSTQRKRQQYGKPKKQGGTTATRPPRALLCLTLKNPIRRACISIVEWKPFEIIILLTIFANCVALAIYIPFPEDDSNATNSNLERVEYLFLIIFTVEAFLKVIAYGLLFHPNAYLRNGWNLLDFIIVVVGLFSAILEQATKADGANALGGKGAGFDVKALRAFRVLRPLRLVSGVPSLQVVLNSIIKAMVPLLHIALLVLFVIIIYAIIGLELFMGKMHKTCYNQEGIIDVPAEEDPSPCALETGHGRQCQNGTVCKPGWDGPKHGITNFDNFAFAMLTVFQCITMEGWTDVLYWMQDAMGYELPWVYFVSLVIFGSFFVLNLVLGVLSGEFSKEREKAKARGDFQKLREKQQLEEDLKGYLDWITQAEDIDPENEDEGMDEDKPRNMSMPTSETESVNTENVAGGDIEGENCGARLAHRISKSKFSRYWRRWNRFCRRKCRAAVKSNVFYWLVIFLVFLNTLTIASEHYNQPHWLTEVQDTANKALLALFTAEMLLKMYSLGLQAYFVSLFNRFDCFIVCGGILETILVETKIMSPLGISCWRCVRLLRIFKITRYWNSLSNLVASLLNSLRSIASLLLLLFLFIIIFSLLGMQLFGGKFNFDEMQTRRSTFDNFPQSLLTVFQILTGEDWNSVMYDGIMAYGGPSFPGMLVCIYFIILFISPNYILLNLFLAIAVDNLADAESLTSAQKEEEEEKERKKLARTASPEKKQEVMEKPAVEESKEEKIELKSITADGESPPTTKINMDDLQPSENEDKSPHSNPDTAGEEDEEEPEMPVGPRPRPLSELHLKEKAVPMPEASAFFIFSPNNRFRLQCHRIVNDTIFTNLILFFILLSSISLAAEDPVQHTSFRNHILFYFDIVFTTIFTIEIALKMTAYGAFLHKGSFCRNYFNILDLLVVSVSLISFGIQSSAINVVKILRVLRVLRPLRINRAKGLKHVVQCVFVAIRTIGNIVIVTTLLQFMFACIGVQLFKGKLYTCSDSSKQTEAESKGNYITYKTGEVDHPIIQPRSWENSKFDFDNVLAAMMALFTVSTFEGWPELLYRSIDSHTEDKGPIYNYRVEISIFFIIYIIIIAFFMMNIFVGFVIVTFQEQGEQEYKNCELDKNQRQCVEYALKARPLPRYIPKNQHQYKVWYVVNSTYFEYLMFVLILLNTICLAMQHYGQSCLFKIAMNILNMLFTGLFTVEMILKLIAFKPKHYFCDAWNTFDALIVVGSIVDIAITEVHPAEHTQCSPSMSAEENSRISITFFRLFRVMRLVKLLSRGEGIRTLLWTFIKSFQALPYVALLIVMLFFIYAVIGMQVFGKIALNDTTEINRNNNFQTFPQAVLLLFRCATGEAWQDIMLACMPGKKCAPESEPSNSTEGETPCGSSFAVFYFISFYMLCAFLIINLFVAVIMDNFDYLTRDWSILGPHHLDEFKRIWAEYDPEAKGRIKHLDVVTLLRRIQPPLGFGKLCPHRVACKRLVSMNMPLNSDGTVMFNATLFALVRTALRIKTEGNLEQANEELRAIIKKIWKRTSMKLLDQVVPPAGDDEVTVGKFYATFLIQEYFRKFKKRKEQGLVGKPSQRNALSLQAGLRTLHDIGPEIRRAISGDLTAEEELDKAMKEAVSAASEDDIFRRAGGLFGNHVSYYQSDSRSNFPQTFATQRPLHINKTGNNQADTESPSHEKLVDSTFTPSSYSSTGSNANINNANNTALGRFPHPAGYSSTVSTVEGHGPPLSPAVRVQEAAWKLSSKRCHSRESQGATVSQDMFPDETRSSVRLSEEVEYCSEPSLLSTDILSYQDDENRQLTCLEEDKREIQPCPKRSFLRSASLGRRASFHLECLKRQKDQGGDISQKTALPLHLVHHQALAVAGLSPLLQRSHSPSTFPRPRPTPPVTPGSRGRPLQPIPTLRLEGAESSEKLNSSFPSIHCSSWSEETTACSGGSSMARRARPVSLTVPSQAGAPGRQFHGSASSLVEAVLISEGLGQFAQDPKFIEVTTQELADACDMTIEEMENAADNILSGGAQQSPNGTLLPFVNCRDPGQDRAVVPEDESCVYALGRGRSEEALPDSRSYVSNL

SMILES: Cn1cnc([N+](=O)[O-])c1Sc1ncnc2nc[nH]c12 [Azathioprine, 6-[(1-Methyl-4-nitro-1H-imidazol-5-yl)sulfanyl]-7H-purine]
- Specific binding [1]: -9.0%
- Specific binding [2]: 1.0%
- Specific binding [3]: 17.2%
- Specific binding [4]: -8.7%
- Specific binding [5]: 38.3%
- IPP screening %, Coactivator recruitment [6]: 3.0%
- IPP screening %, Specific binding (Tubulin (r)): 6.0%
- Bioactivity Observations: cell stress panel (HepG2 cells [7]): The leading PoD is extrapolated below the lowest dose tested in the CSP
- pod_cell_stress PoD (HepG2 cells [7]): 3.96e-05 µM
- pod_httr_bifrost PoD (HepG2 cells [8]): 0.01764 µM
- podl_path_minbmd PoD (HepG2 cells [8]): 0.1634 µM
- pod_httr_bifrost PoD (HepaRG cells): 0.8426 µM
- podl_path_minbmd PoD (HepaRG cells): 3.742 µM
- pod_httr_bifrost PoD (MCF7 cells): 0.1265 µM
- podl_path_minbmd PoD (MCF7 cells): 0.2237 µM
- Specific binding [9]: 4.2%
- risk [10]: 1
- Intrinsic Liver Clearance [11]: 4323.84 L/h
- solubility (physchem): 0.231 mg/mL (≈ 833 µM)
- PoD (NOAEL) (rat; rat, 28 days, haematological changes, ref ToxRefDB/Paul-Friedman et al. (2020)/regulatory opinions): 3 mg/kg bw/day
- Reported AUC0-t [12, 18]: 0.43 µg·h/mL
- Reported cmax [12, 18]: 0.9163 µg/mL
- Reported tmax [12, 18]: 0 min
- Reported AUC0-t [12, 19]: 1.0325 µg·h/mL
- Reported cmax [12, 19]: 0.7498 µg/mL
- Reported tmax [12, 19]: 7.524 min
- Reported AUC0-t [12, 20]: 0.1 µg·h/mL
- Reported cmax [12, 20]: 0.0478 µg/mL
- Reported tmax [12, 20]: 32.87 min

SMILES: CC1(C)C(C=C(Cl)Cl)C1C(=O)OC(C#N)c1cccc(Oc2ccccc2)c1 (centres unmarked) [Cypermethrin, Cyano(3-phenoxyphenyl)methyl 3-(2,2-dichloroethenyl)-2,2-dimethylcyclopropane-1-carboxylate]
- Specific binding [2]: 0.9%
- Specific binding ([3]; IPP screening at 10 uM, control diazepam): 5.5%
- Specific binding ([4]; IPP screening at 10 uM, control veratridine): -112.7%
- Specific binding [5]: 0.1%
- IPP screening %, Coactivator recruitment [13]: 0.0%
- IPP screening %, Coactivator recruitment [14]: 0.0%
- IPP screening %, Coactivator recruitment [6]: 0.0%
- IPP screening %, Specific binding (Tubulin (r)): 8.0%
- pod_cell_stress PoD (HepG2 cells [7]): 7.881 µM
- pod_httr_bifrost PoD (HepG2 cells [8]): 2.669 µM
- podl_path_minbmd PoD (HepG2 cells [8]): 2.638 µM
- pod_httr_bifrost PoD (HepaRG cells): 4.402 µM
- podl_path_minbmd PoD (HepaRG cells): 35.2754 µM
- pod_httr_bifrost PoD (MCF7 cells): 8.9686 µM
- podl_path_minbmd PoD (MCF7 cells): 25.4106 µM
- AC50 [15]: 0.49 µM
- Specific binding ([9]; IPP screening at 10 uM, control CGS 19755): 11.4%
- IPP screening %, Specific binding [16]: 22.7%
- Lowest NOAEL (rat; rat chronic study, route of administration not reported, ref not given): Lowest NOAEL is 0.5 mg/kg from a rat chronic study, but the route of administration isn't reported. 1 mg/kg/day is NOAEL from 52 week dog study
- PoD (NOAEL) (dog): 1 mg/kg bw/day
- IC50 [17]: > 0.57 µM
